In ChEMBL document CHEMBL4321833, “Sugar Kick Prevents Memory Impairment” (J Med Chem, 2019):

Key:
[1] = Apparent permeability of the compound; assay type: ADME; details: not told
Protein O-GlcNAcase = target: T1, Protein O-GlcNAcase (Homo sapiens, UniProt O60502); test: Inhibition of human O-GlcNAcase
T1 sequence (O60502 whole entry): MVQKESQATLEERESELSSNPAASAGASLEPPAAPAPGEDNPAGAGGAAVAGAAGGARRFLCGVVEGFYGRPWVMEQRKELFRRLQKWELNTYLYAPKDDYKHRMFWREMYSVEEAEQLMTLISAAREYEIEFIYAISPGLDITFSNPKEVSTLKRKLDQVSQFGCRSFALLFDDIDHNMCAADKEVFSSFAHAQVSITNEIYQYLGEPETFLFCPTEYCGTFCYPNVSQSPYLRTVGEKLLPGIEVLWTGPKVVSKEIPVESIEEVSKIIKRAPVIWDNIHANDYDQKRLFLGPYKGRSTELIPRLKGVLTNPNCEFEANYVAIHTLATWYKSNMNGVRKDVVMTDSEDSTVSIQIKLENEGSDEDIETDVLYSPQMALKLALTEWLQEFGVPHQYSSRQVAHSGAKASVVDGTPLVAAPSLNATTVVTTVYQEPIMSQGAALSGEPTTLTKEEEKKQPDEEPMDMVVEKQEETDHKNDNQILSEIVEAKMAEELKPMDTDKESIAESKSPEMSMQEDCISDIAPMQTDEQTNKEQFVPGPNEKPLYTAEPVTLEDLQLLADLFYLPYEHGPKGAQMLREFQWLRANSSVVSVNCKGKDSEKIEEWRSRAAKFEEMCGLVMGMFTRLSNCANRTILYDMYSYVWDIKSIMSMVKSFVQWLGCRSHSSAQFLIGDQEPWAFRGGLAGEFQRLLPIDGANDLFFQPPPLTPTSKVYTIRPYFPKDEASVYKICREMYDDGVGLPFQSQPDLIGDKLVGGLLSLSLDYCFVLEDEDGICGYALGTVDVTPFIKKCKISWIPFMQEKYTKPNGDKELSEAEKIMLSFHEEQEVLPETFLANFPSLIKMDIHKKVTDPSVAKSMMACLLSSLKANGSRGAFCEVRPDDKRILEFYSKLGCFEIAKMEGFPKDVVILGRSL

- Papp [1]: 6.4 ×10⁻⁶ cm/s
- IC50 (Protein O-GlcNAcase): 7.9 nM
Compound: CCNC1=N[C@@H]2[C@@H](O)[C@H](O)[C@@H](C(F)F)O[C@@H]2S1
